Data set [1] has as its system Norovirus. Put plainly: Inhibition of recombinant norovirus Norwalk binding to human HBGA A antigen by EIA. The format is functional.
In data set [2] the test system is Norovirus. Nature of the data set: Inhibition of recombinant norovirus Norwalk binding to human HBGA H antigen by EIA. The format is functional.
Data set [3] can be described thus: Solubility of the compound. The class given is physicochemical.
In data set [4] the test system is Norovirus. Put plainly: Inhibition of recombinant norovirus MOH binding to human HBGA B antigen by EIA. The format is functional.
Data set [5] has as its system Norovirus. Nature of the data set: Inhibition of norovirus recombinant VA387 binding to human HBGA B antigen by EIA. The format is functional.
Data set [6] concerns Norovirus. Put plainly: Inhibition of recombinant norovirus VA387 binding to human HBGA A antigen by EIA. The class given is functional.
Data set [7] has as its system Norovirus. Put plainly: Inhibition of norovirus VA387 binding to HBGA A type antigen in human saliva at 13.6 uM by EIA. The class given is functional.
The nature of data set [8]: Cytotoxicity against HeLa cells by MTS assay. The class given is cell-based. The following applies: human.
For data set [9], the system named is Norovirus. Nature of the data set: Inhibition of recombinant norovirus VA387 binding to human HBGA H antigen by EIA. The class given is functional.
The test system of data set [10] is Norovirus. Nature of the data set: Inhibition of recombinant norovirus VA207 binding to human HBGA Le antigen by EIA. The format is functional.
The subject of data set [11] is Norovirus. Nature of the data set: Inhibition of recombinant norovirus MOH binding to human HBGA A antigen by EIA. The class given is functional.
Data set [12] has as its system Norovirus. Nature of the data set: Inhibition of norovirus VA387 binding to HBGA A type antigen in human saliva at 11.8 uM by EIA. The format is functional.
In data set [13] the test system is Norovirus. Put plainly: Inhibition of norovirus VA387 binding to HBGA A type antigen in human saliva at 13.7 uM by EIA. The class given is functional.
For data set [14], the system named is Norovirus. Put plainly: Inhibition of norovirus VA387 binding to HBGA A type antigen in human saliva at 11.7 uM by EIA. The format is functional.
Data set [15] concerns Norovirus. Put plainly: Inhibition of norovirus VA387 binding to HBGA A type antigen in human saliva at 9.3 uM by EIA. The class given is functional.
Data set [16] relates to Norovirus. Put plainly: Inhibition of norovirus VA387 binding to HBGA A type antigen in human saliva at 10.9 uM by EIA. The class given is functional.
In data set [17] the test system is Norovirus. Nature of the data set: Inhibition of norovirus VA387 binding to HBGA A type antigen in human saliva at 8.1 uM by EIA. The class given is functional.
Data set [18] deals with Norovirus. Put plainly: Inhibition of norovirus VA387 binding to HBGA A type antigen in human saliva at 2.2 uM by EIA. The class given is functional.
Data set [19] relates to Norovirus. Put plainly: Inhibition of norovirus VA387 binding to HBGA A type antigen in human saliva at 9.6 uM by EIA. The format is functional.
In data set [20] the test system is Norovirus. Put plainly: Inhibition of norovirus VA387 binding to HBGA A type antigen in human saliva at 9.1 uM by EIA. The class given is functional.
For data set [21], the system named is Norovirus. Put plainly: Inhibition of norovirus VA387 binding to HBGA A type antigen in human saliva at 12.8 uM by EIA. The format is functional.
Data set [22] concerns Norovirus. Put plainly: Inhibition of norovirus VA387 binding to HBGA A type antigen in human saliva at 4.8 uM by EIA. The class given is functional.

≈ marks a conversion by molar mass, not a printed value.

Consider `Cc1cc(O)c(Sc2c(O)cc(C)cc2C(C)(C)c2ccccc2)c(C(C)(C)c2ccccc2)c1`, for which the EC50 is above 100 µM with Norovirus [1]; above 100 µM in the data set on Norovirus [2]; above 100 µM in the data set with Norovirus [4]; 49.5 µM in the data set with Norovirus [5]; 13.6 µM in the data set on Norovirus [6]; 48.1 µM in the data set with Norovirus [9]. Also, the EC50 in the data set with Norovirus [10] and in the data set with Norovirus [11] was above 100 µM each time. Also, the concentration in solution in [3] (solubility) was 400 µM (≈ 193 µg/mL). Further, 13.6 µM produced 48.9% inhibition in the data set with Norovirus [7]. For the same compound, the CC50 in data set [8] amounted to 70.6 µM.

On to `CC(C)OC(=O)CC(=O)CSc1nc(-c2ccc(F)cc2)cc(-c2cccs2)c1C#N`, for which the EC50 with Norovirus [1] is 35 µM; in the data set with Norovirus [2], 19.8 µM; in the data set with Norovirus [4], above 100 µM; with Norovirus [5], 7.9 µM; with Norovirus [6], 11.8 µM; with Norovirus [9], 7.5 µM. Also, the EC50 in the data set on Norovirus [10] and in the data set with Norovirus [11] was above 100 µM throughout. Also, the solubility in data set [3] was found to be 400 µM (≈ 182 µg/mL). Besides, half-maximal cytotoxicity in [8] (CC50) was put at 220 µM. The inhibition at 11.8 µM in the data set on Norovirus [12] was found to be 50.9%.

Take `CCCOc1ccc(-c2cc(C(=O)N/N=C/c3ccc(OCC)cc3)[nH]n2)cc1`: the EC50 with Norovirus [1] was above 100 µM; in the data set on Norovirus [2], above 100 µM; in the data set on Norovirus [4] it was above 100 µM; in the data set with Norovirus [5], above 100 µM; in the data set with Norovirus [6] it was 13.7 µM; in the data set on Norovirus [9], above 100 µM. Moreover, the EC50 in the data set on Norovirus [10] and in the data set with Norovirus [11] was above 100 µM each time. Moreover, the solubility in [3] is above 100 µM. It took 12.3 µM to reach half-maximal cytotoxicity in data set [8] (CC50). Further, in the data set on Norovirus [13], the inhibition at 13.7 µM worked out at 51.1%.

For the compound `Cc1ccc(NC(=O)CC(c2ccccc2)c2ccccc2)cc1C`, the EC50 was above 100 µM with Norovirus [1]; above 100 µM with Norovirus [2]; above 100 µM in the data set with Norovirus [4]; above 100 µM in the data set with Norovirus [5]; 11.7 µM in the data set with Norovirus [6]; 47.5 µM in the data set with Norovirus [9]. Besides, the EC50 in the data set with Norovirus [10] and in the data set on Norovirus [11] was above 100 µM throughout. The same compound had a solubility in data set [3] above 100 µM. In addition, in data set [8], half-maximal cytotoxicity (CC50) was put at 40.3 µM. The inhibition at 11.7 µM with Norovirus [14] is 51.4%.

Turning to `O=CC(=O)c1ccc2c(c1)Cc1cc(C(=O)C=O)ccc1-2`, the EC50 in the data set with Norovirus [1] was above 100 µM; in the data set on Norovirus [2], above 100 µM; in the data set with Norovirus [4], above 100 µM; in the data set with Norovirus [5] it was 44.6 µM; in the data set on Norovirus [6], 9.3 µM; with Norovirus [9] it was 41.1 µM. Besides, the EC50 in the data set on Norovirus [10] and in the data set on Norovirus [11] was above 100 µM in each case. For the same compound, the solubility in data set [3] worked out at 400 µM (≈ 111 µg/mL). The same compound yielded an inhibition at 9.3 µM with Norovirus [15] of 53.8%. It took 52.7 µM to reach half-maximal cytotoxicity in data set [8] (CC50).

Turning to `O=C(/C=C/c1ccc(-c2cc(Cl)cc(Cl)c2)o1)c1cccs1`, the EC50 in the data set on Norovirus [1] was above 100 µM; in the data set with Norovirus [2], above 100 µM; with Norovirus [4], above 100 µM; with Norovirus [5] it was above 100 µM; with Norovirus [6] it was 10.9 µM; in the data set on Norovirus [9], above 100 µM. The EC50 in the data set with Norovirus [10] and in the data set with Norovirus [11] was above 100 µM in each case. This compound also registered a solubility in [3] of 400 µM (≈ 140 µg/mL). The inhibition at 10.9 µM in the data set on Norovirus [16] was determined as 49%. In addition, half-maximal cytotoxicity in [8] (CC50) was put at 157 µM.

`C=C(SCCNC(=O)NCCCCCCNC(=O)NCCSc1ccccc1O)/C(C)=C\C`: the half-maximal effective concentration (EC50) in the data set on Norovirus [1] was 14.1 µM; with Norovirus [2], 22.6 µM; with Norovirus [4] it was above 100 µM; with Norovirus [5], 13.1 µM; with Norovirus [6] it was 8.1 µM; with Norovirus [9], 14.2 µM. Moreover, the EC50 in the data set on Norovirus [10] and in the data set with Norovirus [11] was above 100 µM each time. The same compound came in with a solubility in [3] of 400 µM (≈ 198 µg/mL). This compound also returned a CC50 in data set [8] of 113 µM. In the data set on Norovirus [17], this compound displayed an inhibition at 8.1 µM of 59.3%.

In the case of `CCC[n+]1cc(-c2ccccc2)nc(N2CCOCC2)n1.[I-]`, the EC50 in the data set on Norovirus [1] is 15.6 µM; in the data set with Norovirus [2], 18.9 µM; in the data set with Norovirus [4], above 100 µM; with Norovirus [5], 5.8 µM; in the data set on Norovirus [6], 2.2 µM; in the data set on Norovirus [9] it was 6.8 µM. In addition, the EC50 in the data set on Norovirus [10] and in the data set with Norovirus [11] was above 100 µM throughout. In [3], this compound came in with a solubility of 400 µM. This compound displayed a CC50 in data set [8] of 158 µM. In addition, in the data set with Norovirus [18], 2.2 µM produced 49.3% inhibition.

With `Oc1ccc(/C=N/c2nccs2)c(O)c1`, the EC50 in the data set on Norovirus [1] was above 100 µM; in the data set on Norovirus [2] it was above 100 µM; in the data set with Norovirus [4], above 100 µM; in the data set with Norovirus [5], 26 µM; in the data set with Norovirus [6], 9.6 µM; in the data set with Norovirus [9] it was 7.6 µM. Also, the EC50 with Norovirus [10] and in the data set on Norovirus [11] was above 100 µM in each case. The concentration in solution in data set [3] (solubility) was 400 µM (≈ 88.1 µg/mL). Besides, half-maximal cytotoxicity in data set [8] (CC50) was put at 324 µM. This compound also yielded an inhibition at 9.6 µM in the data set on Norovirus [19] of 45.3%.

Turning to `CCCc1ccc(OCc2ccc(C(=O)N/N=C/c3ccc(Cl)cc3O)o2)cc1`, the inhibition at 9.1 µM in the data set with Norovirus [20] was 62.9%. Further, the EC50 with Norovirus [1] was 18.2 µM; in the data set on Norovirus [2] it was 36.3 µM; with Norovirus [4], above 100 µM; with Norovirus [5] it was 13.5 µM; in the data set with Norovirus [6] it was 9.1 µM; in the data set on Norovirus [9], 7.2 µM. The EC50 in the data set with Norovirus [10] and with Norovirus [11] was above 100 µM each time. Further, in data set [3], the concentration in solution (solubility) was 400 µM (≈ 165 µg/mL). In addition, in data set [8], the CC50 worked out at 46.7 µM.

Consider `O=C(C(=O)c1ccc(C(=O)c2ccc(C(=O)C(=O)c3ccc(Sc4ccccc4)cc3)cc2)cc1)c1ccc(Sc2ccccc2)cc1`, for which the EC50 in the data set with Norovirus [1] is above 100 µM; in the data set with Norovirus [2], above 100 µM; in the data set with Norovirus [4], above 100 µM; with Norovirus [5], 35.3 µM; in the data set with Norovirus [6], 12.8 µM; in the data set on Norovirus [9] it was 26.1 µM. The EC50 in the data set on Norovirus [10] and with Norovirus [11] was above 100 µM throughout. For the same compound, the solubility in data set [3] was 400 µM (≈ 265 µg/mL). In addition, the inhibition at 12.8 µM in the data set on Norovirus [21] stood at 46.1%. This compound also displayed a CC50 in data set [8] of 263 µM.

Take `CCCCc1ccc(NC(=O)c2ccc(C)cc2)cc1`: the EC50 with Norovirus [1] was 53 µM; in the data set with Norovirus [2], 47.8 µM; in the data set on Norovirus [4], above 100 µM; in the data set on Norovirus [5] it was 32.5 µM; in the data set with Norovirus [6] it was 12.8 µM; in the data set on Norovirus [9], 28.2 µM. Besides, the EC50 with Norovirus [10] and with Norovirus [11] was above 100 µM each time. The compound further showed a solubility in data set [3] of 400 µM (≈ 107 µg/mL). In the data set on Norovirus [21], this compound came in with an inhibition at 12.8 µM of 54.3%. Also, the midpoint of cytotoxicity in data set [8], the CC50, lay at 180 µM.

Turning to `CCOC(=O)C1=C(C)OC(N)=C(C#N)C1c1ccc(OCc2ccc(C)cc2)c([N+](=O)[O-])c1` (stereo not drawn), in the data set with Norovirus [22], testing at 4.8 µM gave an inhibition of 61.1%. Besides, the EC50 with Norovirus [1] was found to be 22.9 µM; in the data set on Norovirus [2], 24.5 µM; in the data set with Norovirus [4], 13.3 µM; in the data set with Norovirus [5], 18.6 µM; with Norovirus [6] it was 4.8 µM; with Norovirus [9], 11.9 µM. Besides, the EC50 in the data set on Norovirus [10] is above 100 µM; in the data set on Norovirus [11] it was 16.5 µM. Also, the solubility in [3] turned out to be 400 µM (≈ 180 µg/mL). The compound further displayed a CC50 in data set [8] of 78.6 µM.

Source of the values: ChEMBL document CHEMBL1142143, “Library screen for inhibitors targeting norovirus binding to histo-blood group antigen receptors” (Antimicrob Agents Chemother, 2007).
